pKd: −log10 of the molar value. Where “and” joins values, the source holds several entries; their conditions need not be identical. Identical values can stand only once.
How the values were obtained:
[1] = tested on: polynucleotide kinase ribozyme Class IV (Kin.44); experiment: kinetic analysis of auto-thiophosphorylation by kinase ribozyme; assay type: biochemical; conditions: 6 ATP-γ-S concentrations
Method: (§1) Because the random pool initially prepared sampled sequence space very sparsely (there are between 4^100 and 10^60 possible 100-mers, but only approximately 10^16 different molecules in the pool), active molecules are likely to be sub-optimal catalysts. Accordingly, three cycles of mutagenic PCR (before selection cycles 7, 8, and 9) were performed to allow the evolution of improvements in the active molecules. Mutagenic PCR was performed as described by Bartel and Szostak (Science, 61:1411, 1993) and by Cadwell and Joyce (PCR Methods Appl., 28, 1992). Briefly, thirty total cycles of PCR were done at each round to yield - 2% mutagenesis. Reactions of pool RNAs were performed either with trace ATP-γ-^35 S, or with 100 μM ATP-γ-S plus additional trace ATP-γ-^35 S. Dithiothreitol (DTT, 10 mM) was included in the reactions. Reactions were quenched by the addition of one volume of 150 mM EDTA, 20 mM DTT in 95% formamide. Reactions were analyzed by electrophoresis on 10% polyacrylamide/8M urea gels. Quantitation was performed using a PhosphorImager (Molecular Dynamics). A known amount of ATP-γ-^35 S was spotted on the gels as a standard. The combined effect of increasing the stringency and performing mutagenic PCR was to increase the activity of the pool by nearly three orders of magnitude from cycle 6 to cycle 13 (FIG. 4).
(§2) Rates for each clone were determined (as described herein) at 6 different ATP-γ-S concentrations, ranging from 2 μM-[…].

[2] = tested on: polynucleotide kinase ribozyme Class II (Kin.25); experiment: as above; assay type: biochemical
Method: as §1, §2

[3] = tested on: polynucleotide kinase ribozyme Class III (Kin.42); experiment: as above; assay type: biochemical; conditions: 6 ATP-γ-S concentrations
Method: as §1, §2

[4] = molecular target: ATP-40-1 RNA (40-nucleotide ATP aptamer); experiment: equilibrium gel filtration (solution Kd); assay type: binding
Method: (§3) Isocratic elution (Arnold et al., J. Chromatography 31:1, 1986) from ATP-agarose and equilibrium gel filtration (Fersht, in Enzyme Structure and Mechanism p. 186-188, Freeman, New York, 1985) was used to measure the dissociation constant for the RNA-ATP complex on the column and in solution. […] The Kd for the ATP-agarose complex is an upper estimate, because the fraction of bound ATP that is accessible to the RNA is not known. The solution Kd for adenosine was similar to that of ATP (5-8 μM), but the Kd for dATP was not measurable (>1 mM). The Kd of ATP-40-1 for its ligand dropped to 2 μM when the Mg^+2 concentration was raised from 5 to 20 mM. Changing the base pair U18-A33 to C-G, as found in most of the clones initially selected, further decreased the Kd to 0.7 μM. At almost saturating concentrations of ATP (50 μM), the RNA bound ~0.7 equivalents of ATP. The RNA likely binds its ligands with a stoichiometry of unit.

[5] = molecular target: ATP-40-1 RNA (40-nucleotide ATP aptamer); experiment: isocratic elution from ATP-C8-agarose column; assay type: binding; conditions: upper estimate, 5 mM Mg
Method: as §3

[6] = molecular target: ATP-binding RNA clone 2 (C8-ATP series, eighth cycle RNA population); experiment: binding of individual eighth-cycle clones to ATP-agarose; conditions: read-out: dissociation constant (Kd)
Method: (§4) A chemically synthesized pool of DNA molecules containing a central region of 120 random nucleotides 5 flanked by constant regions used as primer binding sites was PCR-amplified and transcribed in vitro by T7 RNA polymerase in the presence of [α-^32 P][…]. RNA was ethanol-precipitated and unincorporated nucleotides removed by Sephadex-G50 chromatography. Following a brief incubation at 65° C. in binding buffer (300 mM NaCl, 20 Mm Tris, pH 7.6, 5 mM MgCl2), the RNA was cooled to room temperature before being loaded onto a 1-ml ATP agarose affinity column. […] After washing with 6 column-volumes of binding buffer, bound RNAs were eluted with 3 column-volumes of binding buffer containing 4 mM ATP, then concentrated by precipitation with ethanol. For the first three cycles, an agarose pre-column was used to prevent enrichment of the RNA pool with agarose-binding RNAs, and bound RNAs were eluted with 5 mM EDTA in water rather than affinity-eluted with ATP. After reverse transcription and PCR amplification, DNA templates were transcribed and the resulting RNA was used in the next round of selection. RNA from the eighth round of selection was converted to cDNA, amplified as double-stranded DNA by PCR, digested with EcoR1 and BamHl gel-purified and cloned into the phage M13 based vector pGem3Z (Promega, Madison, Wis.).
(§5) Thirty-nine clones from the eighth cycle RNA population were sequenced seventeen different sequences were found. Of these, the most abundant sequence (C8-ATP-3) occurred 14 times, and 12 sequences occurred just once. […] Clones 2, 3, 8, 15, and 19 were individually tested for binding to ATP-agarose.

[7] = molecular target: ATP-binding RNA clone 19 (C8-ATP series, eighth cycle RNA population); experiment: as above; conditions: read-out: dissociation constant (Kd)
Method: as §4, §5

[8] = molecular target: ATP-binding RNA clone 8 (C8-ATP series, eighth cycle RNA population); experiment: as above; conditions: read-out: dissociation constant (Kd)
Method: as §4, §5

[9] = molecular target: ATP-binding RNA clone 3 (C8-ATP-3, full-length 164-nucleotide RNA); experiment: as above; conditions: read-out: dissociation constant (Kd)
Method: as §4, §5

[10] = tested on: ATP-binding RNA clone 15 (C8-ATP-15); experiment: as above
Method: as §4, §5

[11] = molecular target: Class I aptamer RNA (ATP aptamer region of Class I kinase ribozyme); experiment: binding of kinase-class aptamer region RNA to C-8 linked ATP agarose; conditions: no detectable interaction with ATP agarose
Source text: (§6) Either the right or left hand stems of the Class II, VI and VII aptamer regions appear to be missing, and it seems likely that these molecules have found novel modes of binding their substrates. Using run-off transcription of synthetic DNA oligonucleotides (Milligan and Uhlenbeck, Methods Enzymol. 180:51, 1989) the RNAs corresponding to the Class I, III, IV, and V aptamer regions were produced. The Class IV aptamer RNA binds weakly to C-8 linked ATP agarose (Sassanfar and Szostak, supra), consistent with a molecule having a Kd for ATP in the range of 0.05-0.5 mM. […] Presumably, the corresponding classes of kinases have developed novel modes of binding ATP-γ-S.

[12] = molecular target: Class III aptamer RNA (ATP aptamer region of Class III kinase ribozyme); experiment: as above; conditions: no detectable interaction with ATP agarose
Source text: as §6

[13] = molecular target: ATP-40-1 RNA variant, base pair U18-A33 changed to C-G; experiment: Kd of ATP aptamer variant; assay type: binding; conditions: further decrease after raising Mg+2 to 20 mM
Method: as §3

[14] = tested on: BL2.8-7 self-biotinylating ribozyme (re-selected from BL8-6); experiment: self-biotinylation time course; assay type: biochemical
Method: The rate of self-biotinylation was determined by a time course experiment. ^32 P-labelled RNA was first resuspended in incubation buffer (100 mM KCl, 10 mM Na-Hepes, pH 7.4, 5 mM MgCl2) and allowed to equilibrate for 10 minutes at room temperature. […] Samples were quenched and affinity purified as described in Haugland, Molecular Probes Handbook of Fluoprescent Probes and Research Chemicals. Aliquots were counted in a scintillation counter following ethanol precipitation (total RNA count) and following binding to streptavidin agarose (product RNA count); the ratio of these two counts is the fraction reacted. Optimizing enzymatic activity: It seemed likely that the original RNA pool from which the BL8-6 ribozyme was derived might not saturate the space of biotin-ligating ribozymes. […]
The background rate of guanosine alkylation by BIE was determined by two independent methods. […] To characterize the functional cores of the two molecules, we analyzed the sequences of active clones isolated from the two mutagenized RNA pools generated from the biotin aptamer and self-alkylating ribozyme sequences. […] Approximately thirty individual RNAs from each of these subcloned pools were sequenced and analyzed to determine which nucleotide positions were conserved and which pairs of nucleotides covaried to maintain Watson-Crick base pairing. […]

[15] = tested on: BL8-6 self-biotinylating ribozyme (SEQ ID NO: 91); experiment: self-biotinylation time course; assay type: biochemical; conditions: in the presence of 200 μM BIE
Method: The rate of self-biotinylation was determined by a time course experiment. ^32 P-labelled RNA was first resuspended in incubation buffer (100 mM KCl, 10 mM Na-Hepes, pH 7.4, 5 mM MgCl2) and allowed to equilibrate for 10 minutes at room temperature. 200 μM BIE was added to the mixture and aliquots were subsequently removed after 0 to 120 minutes of incubation. Samples were quenched and affinity purified as described in Haugland, Molecular Probes Handbook of Fluoprescent Probes and Research Chemicals. Aliquots were counted in a scintillation counter following ethanol precipitation (total RNA count) and following binding to streptavidin agarose (product RNA count); the ratio of these two counts is the fraction reacted. Optimizing enzymatic activity: It seemed likely that the original RNA pool from which the BL8-6 ribozyme was derived might not saturate the space of biotin-ligating ribozymes. To test the possibility that appropriate additional mutations to the BL8-6 sequence might increase its catalytic activity, a third RNA pool was generated based on its sequence but with non-wild-type nucleotides substituted at each position with 30% probability (FIG. 8D) (using methods described above). […] After eight rounds of selection (ending with a 1 minute incubation period at 10 μM BIE), active clones from the pool were sequenced and assayed for catalytic activity.

[16] = auto-thiophosphorylation, 6 ATP-γ-S concentrations
[17] = equilibrium gel filtration, 5 mM Mg, read-out: Kd (solution)

## Nc1ncnc2c1ncn2[C@@H]1O[C@H](COP(=O)(O)OP(=O)(O)OP(O)(O)=S)[C@@H](O)[C@H]1O [ATP-γ-S]
[1]
  kcat: 0.0005 ± 1.7e-05 s⁻¹
[2]; [16]
  Km: 41 µM and 42 µM
  kcat: 0.00333 ± 0.00033 s⁻¹ and 0.0055 ± 0.00033 s⁻¹
[2]; self-phosphorylation
  kcat/Km: 100 M⁻¹ s⁻¹
[2]; self-phosphorylation, approximate value
  kcat: approximately 0.3 min^-1
[3]
  Km: 50 µM and 58 µM
  kcat: 0.0012 ± 8.3e-05 s⁻¹ and 0.00167 ± 0.000267 s⁻¹

## Nc1ncnc2c1ncn2[C@@H]1O[C@H](COP(=O)(O)OP(=O)(O)OP(=O)(O)O)[C@@H](O)[C@H]1O [ATP]
[4]; Mg+2 concentration raised from 5 to 20 mM, method not stated, read-out: Kd
  pKd: 5.70
[4]; [17]
  pKd: 5.10 to 5.22
[5]
  pKd: ~4.85
[6]
  pKd: > 4.30
[7]
  pKd: > 4.30
[8]
  pKd: > 4.30
[9]
  pKd: > 4.30
[10]
  estimated Kd: ~ 250 μM
[11]
  pKd: < 3.30
[12]
  pKd: < 3.30
[13]
  pKd: 6.15

## O=C(CI)NCCNC(=O)CCCC[C@@H]1SC[C@@H]2NC(=O)N[C@@H]21 [BIE, N-biotinoyl-N'-iodoacetylethylenediamine]
[14]; in the presence of 100 μM BIE
  rate of self-biotinylation: 0.05 min⁻¹
[14]; time course experiment
  catalyzed biotinylation rate: approximately 8 s^-1 M^-1
[15]
  rate of self-biotinylation: 0.001 min⁻¹

## Nc1ncnc2c1ncn2[C@@H]1O[C@H](CO)[C@@H](O)[C@H]1O [adenosine]
[4]; [17]
  pKd: 5.10 to 5.30

## Nc1ncnc2c1ncn2[C@H]1C[C@H](O)[C@@H](COP(=O)(O)OP(=O)(O)OP(=O)(O)O)O1 [dATP]
[4]; not measurable, read-out: Kd (solution)
  pKd: < 3.00
